Counter-ions that a name gives are not always drawn.

As usually defined, the EC50 is the concentration that produces a half-maximal response. The low end stands for higher potency in that assay, the high end for lower potency in that assay.

In one assay the target is T1, Bcl-2-like protein 10 [11-204] (Homo sapiens, UniProt Q9HD36).
T1 construct: 11-204
T1 sequence (Q9HD36 whole entry): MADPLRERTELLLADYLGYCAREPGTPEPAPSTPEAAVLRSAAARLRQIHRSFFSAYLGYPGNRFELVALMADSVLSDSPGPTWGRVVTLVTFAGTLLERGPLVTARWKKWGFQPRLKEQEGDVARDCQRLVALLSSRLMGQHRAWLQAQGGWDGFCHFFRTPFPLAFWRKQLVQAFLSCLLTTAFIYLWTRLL
As to the kind of experiment: regulators of Bim-Bcl-B binding, dose response, biochemical, multiplexed, bead-based flow cytometry, human (AID 1327).
Details: not given
On the technique in general: A flow cytometer gives signals particle by particle.
`Cc1nc2ncccn2c1-c1csc(Nc2ccc(O)cc2)n1` returned an EC50 of 0.12 µM.
`COc1ccc(CC(=O)Nc2ccc(-c3nc4cc(C)ccc4o3)c(O)c2)cc1OC` [2-(3,4-dimethoxyphenyl)-N-[(4Z)-3-keto-4-(5-methyl-3H-1,3-benzoxazol-2-ylidene)cyclohexa-1,5-dien-1-yl]acetamide] yielded a concentration for a half-maximal effect (EC50) of 14.8 µM.
Compound `Nc1ccc(N2CCN(CCCCN3C(=O)C4CCCN4C3=O)CC2)cc1` (stereo unspecified) [2-[4-[4-(4-aminophenyl)-1-piperazinyl]butyl]-5,6,7,7a-tetrahydropyrrolo[1,2-c]imidazole-1,3-dione;hydrate;hydrochloride] returned an EC50 of 52.5 µM.
Consider `COc1ccccc1Cn1nnc2c(=O)[nH]c(C3CCN(C(=O)c4ccc(C)cc4)CC3)nc21` [3-[(2-methoxyphenyl)methyl]-5-[1-(4-methylphenyl)carbonylpiperidin-4-yl]-2H-[1,2,3]triazolo[4,5-d]pyrimidin-7-one], for which the concentration giving a half-maximal response (EC50) is 12.2 µM.
The same measure, in the same setting: in the case of `Cc1cc(N)ccc1N1CCCC1` [3-methyl-4-(1-pyrrolidinyl)aniline;hydrochloride] it was 2.13 µM; in that of `COc1ccccc1Nc1nc(-c2c(C)nc3ncccn23)cs1` [(2-methoxyphenyl)-[4-(2-methylimidazo[1,2-a]pyrimidin-3-yl)thiazol-2-yl]amine;hydrobromide], 0.82 µM; in that of `CN(C)[C@@H]1C(=O)C(C(=O)NCN2CCCC2)C(=O)[C@@]2(O)C(=O)C3C(=O)c4c(O)cccc4[C@@](C)(O)C3CC12` (stereo partly drawn) [(2Z,4S,6S,12aS)-4-(dimethylamino)-6,10,11,12a-tetrahydroxy-2-[hydroxy-(1-pyrrolidinylmethylamino)methylidene]-6-methyl-4,4a,5,5a-tetrahydrotetracene-1,3,12-trione], 14.3 µM.
The same measure, in the same setting: for `COc1cc(CN=Nc2nn3cnnc3c3ccccc23)ccc1O` [(4E)-2-methoxy-4-[[2-([1,2,4]triazolo[3,4-a]phthalazin-6-yl)hydrazinyl]methylidene]cyclohexa-2,5-dien-1-one] the value was 1.07 µM; for `O=c1c2c(n3nnnc3n1Cc1ccccc1)-c1ccccc1CC21CCCC1` [MLS000030575], 5.52 µM.
The same measure, in the same setting: in the case of `Clc1nc(NCc2cccnc2)nc(N2CCOCC2)n1` [MLS000121154] it was 8.51 µM; in that of `Clc1ccc2c(N=NCc3ccccc3Br)ccnc2c1` [MLS000336087], 9.57 µM.
`O=S1(=O)N=C(N(CCO)N=Cc2ccncc2)c2ccccc21` [MLS000682942] yielded a concentration giving a half-maximal response (EC50) of 11.8 µM.

The same assay, now with this note: inactive by the depositor's call.
Turning to `Cc1ccc(C)n1-c1cccc(C(=O)O)c1`, the EC50 turned out to be 49.5 µM.
Regarding `O=C(Nc1ccc2nc(-c3ccco3)c(-c3ccco3)nc2c1)N1CCCCCC1`, the midpoint of the response, the EC50, lay at 33.3 µM.
Still for that read-out and setting: for `CN1CCN(C2=C(Cl)C(=O)C(c3cnc(N4CCCCC4)s3)=C(Cl)C2=O)CC1` the value was 3.42 µM.
For the compound `CCOC(=O)c1ccc(Nc2nc(C(=O)OCC)nc3ccccc23)cc1`, the concentration giving a half-maximal response (EC50) stood at 2.18 µM.
Same read-out and setting: for `CCOCCCn1c(N)c(C(=O)Nc2sc3c(c2C(=O)OC)CCCC3)c2nc3ccccc3nc21` the value was 1.28 µM; for `O=S1(=O)N=C(N(CCO)N=C/C=C/c2ccccc2)c2ccccc21`, 11.7 µM; for `CCOC(=O)c1c2c3c(cccc3[nH]c1=O)C(=O)c1ccccc1-2`, 3.53 µM.
In turn, `CCN(CC)c1ccc(-c2nn3c(-c4ccccc4OC)nnc3s2)cc1` displayed an EC50 of 21.7 µM.
`O=C(NCc1ccccc1)c1ccc2nc(-c3ccco3)c(-c3ccco3)nc2c1` [2,3-bis(furan-2-yl)-N-(phenylmethyl)quinoxaline-6-carboxamide] had an EC50 of 20.6 µM.
On the same count and under the same terms, for `O=C(Nc1ccccc1)c1ccc2nc(-c3ccco3)c(-c3ccco3)nc2c1` [2,3-di-2-furyl-N-phenyl-6-quinoxalinecarboxamide] the value was 33.8 µM; for `O=C(COc1ccccc1)N1CCN(c2ncnc3c2cnn3-c2ccccc2)CC1` [2-Phenoxy-1-[4-(1-phenyl-1H-pyrazolo[3,4-d]pyrimidin-4-yl)-piperazin-1-yl]-ethanone], 19.2 µM; for `Cc1cccc(C=NN(CCO)C2=NS(=O)(=O)c3ccccc32)c1` [2-[(1,1-dioxo-1,2-benzothiazol-3-yl)-[(3-methylphenyl)methylideneamino]amino]ethanol], 38.7 µM.
In the case of `Cc1cc(OCc2cn3cccnc3n2)ccc1Cl` [2-[(4-chloranyl-3-methyl-phenoxy)methyl]imidazo[1,2-a]pyrimidine], it took 17.3 µM to reach a half-maximal effect (EC50).
Still for that read-out and setting: in the case of `O=S1(=O)N=C(N(CCO)N=Cc2ccccc2)c2ccccc21` [2-[(benzylideneamino)-(1,1-dioxo-1,2-benzothiazol-3-yl)amino]ethanol] it was 12.8 µM; in that of `O=C(CSc1ccc2nnc(-c3ccccn3)n2n1)Nc1nccs1` [2-[[3-(2-pyridinyl)-[1,2,4]triazolo[4,3-b]pyridazin-6-yl]thio]-N-(2-thiazolyl)acetamide], 5.54 µM.
On the same count and under the same terms, for `O=C(NCCCN1CCN(CCCNC(=O)c2cc([N+](=O)[O-])ccc2Cl)CC1)c1cc([N+](=O)[O-])ccc1Cl` [2-chloranyl-N-[3-[4-[3-[(2-chloranyl-5-nitro-phenyl)carbonylamino]propyl]piperazin-1-yl]propyl]-5-nitro-benzamide] the value was 43.4 µM.
The same measure, in the same setting: in the case of `Cc1nc2ncccn2c1-c1csc(Nc2ccccc2)n1` [4-(2-methyl-3-imidazo[1,2-a]pyrimidinyl)-N-phenyl-2-thiazolamine] it was 1.38 µM; in that of `COc1ccccc1-n1c(-c2ccc(Cl)cc2)c[nH]c1=S` [4-(4-chlorophenyl)-3-(2-methoxyphenyl)-1H-imidazole-2-thione], 11.4 µM.
For the compound `Cc1cc(C)nc(SCc2cc(=O)c(OC(=O)c3ccc(Cl)c([N+](=O)[O-])c3)co2)n1` [4-chloro-3-nitrobenzoic acid [6-[[(4,6-dimethyl-2-pyrimidinyl)thio]methyl]-4-oxo-3-pyranyl] ester], a half-maximal effect (EC50) was put at 1.51 µM.
For the compound `COc1ccc(C2=Nn3c(nnc3-c3ccco3)SC2)cc1OC` [6-(3,4-Dimethoxy-phenyl)-3-furan-2-yl-7H-[1,2,4]triazolo[3,4-b][1,3,4]thiadiazine], the concentration giving a half-maximal response (EC50) was determined as 1.15 µM.
The same measure, in the same setting: for `COc1ccc(C2=Nn3c(nnc3-c3ccccn3)SC2)cc1OC` [6-(3,4-dimethoxyphenyl)-3-(2-pyridinyl)-7H-[1,2,4]triazolo[3,4-b][1,3,4]thiadiazine] the value was 6.18 µM; for `CN(N=C/C=C/c1ccccc1)C1=NS(=O)(=O)c2ccccc21` [(1E,2E)-3-phenylacrylaldehyde (1,1-dioxido-1,2-benzisothiazol-3-yl)(methyl)hydrazone], 1.94 µM; for `Cc1cc(-c2nnc3n2N=C(c2ccc(-c4ccccc4)cc2)CS3)[nH]n1` [MLS000082991], 36.4 µM.
In turn, `O=C1NC(=O)C2(Cc3c(nc4ccccn4c3=O)N3CCCCCC32)C(=O)N1Cc1ccccc1` (stereo unspecified) [MLS000083668] gave a half-maximal effective concentration (EC50) of 18.2 µM.
Still for that read-out and setting: for `Cc1cc2n(c1)CCn1c(C)ccc1-2` [MLS000104384] the value was 11.8 µM; for `O=C(Nc1ccncc1)c1cc2ccccc2o1` [MLS000109378], 62.1 µM.
On the same count and under the same terms, in the case of `CCOC(=O)C1CCN(C(=O)Nc2ccc3nc(-c4ccco4)c(-c4ccco4)nc3c2)CC1` [MLS000113285] it was 46.4 µM.
Same read-out and setting: in the case of `Cc1cc(C)cc(NS(=O)(=O)c2ccc3c(c2)c(=O)n(C)c(=O)n3C)c1` [MLS000521783] it was 17.4 µM.
With `COCCCn1c(N)c(C(=O)Nc2sc3c(c2C(=O)OC)CCCC3)c2nc3ccccc3nc21` [MLS000595323], the EC50 came to 1.39 µM.

Values taken from BindingDB's records for doi:10.7270/Q2GH9GBT (Nmmlsc, 2008).
